Experimental data reported in patent US20020183249A1, “Method of identifying inhibitors of CDC25” (priority 1999, published 2002).
Like-named read-outs stand apart in the source and are kept apart here. Non-standard residues stand in square brackets, D forms with d. Residues, ends and D or L forms follow the SMILES beside them. *: point of attachment. Phe(4-CH2SO3H) = N[C@@H](Cc1ccc(CS(=O)(=O)O)cc1)C(=O)O; Bta = N[C@@H](Cc1csc2ccccc12)C(=O)O; Aad = N[C@@H](CCCC(=O)O)C(=O)O; X1 = CCOc1ccc2ccccc2c1C(=O)*; X2 = COc1ccc2ccccc2c1C(=O)*; αMeP = C[C@@]1(C(=O)O)CCCN1; Nle = CCCC[C@H](N)C(=O)O; Nva = CCC[C@H](N)C(=O)O; NHtBu = CC(C)(C)N*; OtBu = CC(C)(C)O*

Tests used:
[1] = biological target: T1, Cdc25A (Homo sapiens, UniProt P30304); experiment: Inhibition of Cdc25A enzymatic activity (IC50); type: biochemical
T1 sequence (P30304 1-524): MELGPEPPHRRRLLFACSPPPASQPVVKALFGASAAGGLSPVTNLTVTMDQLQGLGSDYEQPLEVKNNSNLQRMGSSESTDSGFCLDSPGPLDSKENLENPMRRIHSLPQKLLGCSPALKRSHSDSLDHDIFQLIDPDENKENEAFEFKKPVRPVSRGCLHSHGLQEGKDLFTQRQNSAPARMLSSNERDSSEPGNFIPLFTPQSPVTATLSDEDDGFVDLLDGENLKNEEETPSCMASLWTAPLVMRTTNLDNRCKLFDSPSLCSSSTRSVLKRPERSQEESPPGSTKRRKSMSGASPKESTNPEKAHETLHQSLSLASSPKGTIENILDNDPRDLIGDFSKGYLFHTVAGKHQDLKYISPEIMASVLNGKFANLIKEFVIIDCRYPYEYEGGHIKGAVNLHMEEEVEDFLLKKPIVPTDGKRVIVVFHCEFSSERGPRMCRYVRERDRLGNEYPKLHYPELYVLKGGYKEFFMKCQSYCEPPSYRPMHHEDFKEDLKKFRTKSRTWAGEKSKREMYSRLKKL
Source text: A compound which is identified by one of the foregoing methods as a potential inhibitor of Cdc25 can then be obtained, for example, by synthesis or from a compound library, and assessed for the ability to inhibit Cdc25 in vitro. Such an in vitro assay can be performed as is known in the art, for example, by contacting Cdc25 in solution with the test compound in the presence of a substrate for Cdc25. The rate of substrate transformation can be determined in the presence of the test compound and compared with the rate in the absence of the test compound. Suitable assays for Cdc25 biological activity are described in U.S. Pat. Nos. 5,861,249; 5,695,950; 5,443,962; and 5,294,538, the teachings of each of which are hereby incorporated by reference herein in their entirety.

[2] = biological target: Cdc25A (human); experiment: cell-based or functional assay

| Compound | IC50 [2] | IC50 [1] | also measured |
| --- | --- | --- | --- |
| CCOc1ccc2ccccc2c1C(=O)N[C@@H](Cc1ccc(CS(=O)(=O)O)cc1)C(=O)N[C@@H](CCC(=O)O)C(=O)N1CCC[C@H]1C(=O)N[C@@H](Cc1csc2ccccc12)C(=O)N[C@@H](CCCC(=O)O)C(=O)NC(C)(C)C [cdc1763] (X1-[Phe(4-CH2SO3H)]EP[Bta][Aad]-NHtBu) | – | 2.2 µM | increase in potency compared to cdc1671 ([1]; Cdc25A IC50 relative to cdc1671): two-fold |
| 2-EtO-naphthyl-1-CO-Smp-Glu(tBu)-Pro-Bta-Aad-NHtBu (peptide) | 1.1 µM | – | – |
| CCCC[C@H](NC(=O)[C@H](Cc1ccc(CS(=O)(=O)O)cc1)NC(=O)c1c(OCC)ccc2ccccc12)C(=O)N1CCC[C@H]1C(=O)N[C@@H](Cc1csc2ccccc12)C(=O)N[C@@H](CCCC(=O)O)C(=O)NC(C)(C)C [cdc1748] (X1-[Phe(4-CH2SO3H)][Nle]P[Bta][Aad]-NHtBu) | – | 2.5 µM | – |
| COc1ccc2ccccc2c1C(=O)N[C@@H](Cc1ccc(CS(=O)(=O)O)cc1)C(=O)N[C@@H](CCC(=O)O)C(=O)N[C@@H](CCC(=O)O)C(=O)N[C@@H](Cc1csc2ccccc12)C(=O)N[C@@H](CCCC(=O)O)C(=O)NC(C)(C)C [cdc1671, 2-CH3O-1-naphthyl-CO—Smp—Glu—Glu—Bta—Aad—NHtBu] (X2-[Phe(4-CH2SO3H)]EE[Bta][Aad]-NHtBu) | – | – | IC50 ([1]; inhibits Cdc25A, read-out: IC50): 5 µM |
| 2-EtO-naphthyl-1-CO-Smp-Glu-Pro-Bta-Aad-NHtBu (peptide) | 2.2 µM | – | increase in potency compared to cdc1671 [2]: 2 fold |
| 2-EtO-naphthyl-1-CO-Smp-Nva-MePro-Bta-Aad-NHtBu (peptide) | 1.5 µM | – | – |
| CCC[C@H](NC(=O)[C@H](Cc1ccc(CS(=O)(=O)O)cc1)NC(=O)c1c(OCC)ccc2ccccc12)C(=O)N1CCC[C@@]1(C)C(=O)N[C@@H](Cc1csc2ccccc12)C(=O)N[C@@H](CCCC(=O)O)C(=O)NC(C)(C)C [cdc1749] (X1-[Phe(4-CH2SO3H)][Nva][αMeP][Bta][Aad]-NHtBu) | – | 1.5 µM | – |
| CCOc1ccc2ccccc2c1C(=O)N[C@@H](Cc1ccc(CS(=O)(=O)O)cc1)C(=O)N[C@@H](CCC(=O)OC(C)(C)C)C(=O)N1CCC[C@H]1C(=O)N[C@@H](Cc1csc2ccccc12)C(=O)N[C@@H](CCCC(=O)O)C(=O)NC(C)(C)C [cdc1719] (X1-[Phe(4-CH2SO3H)]E(OtBu)P[Bta][Aad]-NHtBu) | – | 1.1 µM | – |

Further lines, with some results ahead:

| IC50 [2] | Compound | IC50 [1] | also measured |
| --- | --- | --- | --- |
| 2.5 µM | 2-EtO-naphthyl-1-CO-Smp-Nle-Pro-Bta-Aad-NHtBu (peptide) | – | – |
| 5 µM | 2-CH3O-1-naphthyl-CO-Smp-Glu-Glu-Bta-Aad-NHtBu (peptide) | – | – |
